In US20060247156A1, “Use of neuropeptides for ligament, cartilage, and bone healing” (priority 2004, published 2006):
“Also recorded” adds a separate entry of the source.

System: ruptured MCL of a FNT rat
Test: Local neuropeptide delivery to ruptured MCL of femoral nerve transected (FNT) rats: mechanical testing, histomorphology
Type: in vivo
Settings: for failure force / ultimate stress / mechanical strength of healing MCL (in words): two weeks of healing; for mechanical strength of healing MCL (in words): local delivery of SP or CGRP
Description: Surgical Procedure: Thirteen female Wistar rats (278 g to 315 g) were divided into two groups: femoral nerve transection (FNT) or sham control. All rats were anesthetized with isofluorane (isofluorane 0.5-3%). […] Skin covering the anterior inguinal region was shaved and prepared for surgery. A skin incision approximately 15 mm long was made and the fascia distal to the inguinal was incised. The femoral artery, vein, and nerve were exposed and the femoral nerve was isolated and transected (with removal of a 5 mm segment of the nerve) using 3-0 dexon suture. The fascia and skin were closed in two layers with 3-0 continuous dexon suture. Immediately following FNT, rats from each group (n=4 FNT; n=3 controls) underwent a complete surgical rupture of the MCL to one knee. The contra-lateral knee underwent sham surgery. Two weeks post-knee surgery, rats were sacrificed using an overdose of pentobarbitone (150 mg/kg).
Local delivery of NPs and NP inhibitors is important to identify the specific roles of individual NPs on healing tissues. […] Briefly, NP infused mini-osmotic pumps were implanted subcutaneously into the back of rats. A small catheter running from the pump to an intramuscular space above the MCL was secured to the rat.
To test whether sensory NPs improve healing in femoral nerve transection (FNT) ruptured MCLs, three female Wistar rats (199 g to 203 g) were given SP locally to the MCL. Substance P (103 pg/μl) was infused into a miniosmotic pump and was delivered to a ruptured MCL of a FNT rat (see surgical procedure in Example 1 above). […] The results are presented graphically in FIG. 5
Animal Model and Surgery: Thirty-seven female Wistar rats (199-298 g) were divided into five groups. […] Rats that were designated to receive NPY, VIP, or a combination of NPY and VIP underwent bilateral surgical sympathectomy. Following surgical nerve transection, each rat also underwent bilateral MCL rupture. Neuropeptides were then delivered ruptured MCLs unilaterally. Neuropeptide infused mini-osmotic pumps (Alzet Corp.) were implanted subcutaneously into the back of each rat. A small catheter running from the pump was run to an intramuscular space above the MCL and was secured. To ensure that neuropeptides are delivered directly to the MCL, rhodamine labeled SP was delivered via a catheter to the MCL (n=2 rats).
To test whether autonomic NPs improve healing in SS ruptured MCLs, seven rats were given VIP, seven rats were given NPY, and seven rats were given a combination of VIP and NPY.
Mechanical Testing: Mechanical testing was performed as described in the preceding examples. Briefly, animal hind limbs from all groups (n=4 for all groups) were disarticulated at the hip joint and stored at −80° C. until testing. On the day of testing, MCLs including intact femoral and tibial bone sections were excised for ex vivo testing. Ligament thickness and width was measured optically, and MCL area was estimated with elliptical geometry. For strain measurements, optical markers were placed onto the ligament tissue near the insertion sites. A small preload of 0.1N was applied to the ligaments in order to obtain a uniform starting point. The ligaments were then preconditioned to 1% strain for 10 cycles. After preconditioning, ligaments were pulled to failure at a rate of ˜10% per second. Tissue displacement was obtained using video dimensional analysis using equations (1) and (2) supra. The mechanical properties that were examined in this study were maximum force, ultimate stress, strain at failure, elastic modulus, and area.

[1] = Example 3: SP 103 pg/μl via mini-osmotic pump to ruptured MCL of FNT rat
[2] = Example 6: SP 75 pg/100 μl via mini-osmotic pump, FNT rats, bilateral MCL rupture

Question: Which results are given for Substance P [SP]?
Answer: failure force [1]: 74.3 N; ultimate stress [1]: 72.33 MPa; failure force [2]: 74.3±7.9 N; ultimate stress [2]: 72.33±22.1 MPa; histomorphology (H&E) of healing MCL (FNT rats, SP 75 pg/100 μl or CGRP 10 pg/100, two weeks): cells were more aligned; mechanical strength of healing MCL (in words) (FNT rats): greater than the strength of uninjured MCLs; also recorded: greater than that of normally innervated, intact MCLs; mechanical strength of healing MCL (in words) (FNT rats, listed as Substance P): completely reversed the functional deficits
